Results as given in US8138215B2, “Hepatitis C virus inhibitors” (Bristol-Myers Squibb Company, priority 2009, dated 2012).
Where two headings read alike, the source gives them in different places.

Tested on: HCV 1b genotype
Assay: HCV Replicon assay, 1b genotype
Format: cell-based
Conditions: Hepatitis C virus, HCV 1b genotype replicon
Procedure: An HCV Replicon assay was utilized in the present disclosure, and was prepared, conducted and validated as described in commonly owned PCT/US2006/022197 and in O'Boyle et. al. Antimicrob Agents Chemother. 2005 April; 49(4):1346-53. Assay methods incorporating luciferase reporters have also been used as described (Apath.com).
HCV-neo replicon cells and replicon cells containing mutations in the NS5A region were used to test the currently described family of compounds. The compounds were determined to have more than 10-fold less inhibitory activity on cells containing mutations than wild-type cells. Thus, the compounds of the present disclosure can be effective in inhibiting the function of the HCV NS5A protein and are understood to be as effective in combinations as previously described in application PCT/US2006/022197 and commonly owned WO/04014852. Further, the compounds of the present disclosure can be effective against the HCV 1b genotype. It should also be understood that the compounds of the present disclosure can inhibit multiple genotypes of HCV. […] In one embodiment, compounds of the present disclosure are active against the 1a, 1b, 2a, 2b, 3a, 4a, and 5a genotypes. EC50 values against HCV 1b are as follows: A=5 pM to 5 nM.

[1] = read-out: Range (EC50 values against HCV 1b)
[2] = read-out: 1b EC50 (Effective 50% inhibitory concentration)

Compound: O=C(N[C@@H](C(=O)N1CCC[C@H]1c1nc(-c2ccc(-c3ccc(-c4c[nH]c([C@@H]5CCCN5C(=O)[C@H](NC(=O)OC5CCC5)c5ccccc5)n4)cc3)cc2)c[nH]1)c1ccccc1)OC1CCC1 [Example CQ-1, Cyclobutyl ((1R)-2-((2S)-2-(4-(4′-(2-((2S)-1-((2R)-2-(((cyclobutyloxy)carbonyl)amino)-2-phenylacetyl)-2-pyrrolidinyl)-1H-imidazol-5-yl)-4-biphenylyl)-1H-imidazol-2-yl)-1-pyrrolidinyl)-2-oxo-1-phenylethyl)carbamate]
- EC50 [1]: 5 to 5000 pM

Compound: O=C(N[C@@H](C(=O)N1CCC[C@H]1c1nc(-c2ccc(-c3ccc(-c4c[nH]c([C@@H]5CCCN5C(=O)[C@H](NC(=O)OC5CCCC5)c5ccccc5)n4)cc3)cc2)c[nH]1)c1ccccc1)OC1CCCC1 [Example CQ-2, Cyclopentyl ((1R)-2-((2S)-2-(4-(4′-(2-((2S)-1-((2R)-2-(((cyclopentyloxy)carbonyl)amino)-2-phenylacetyl)-2-pyrrolidinyl)-1H-imidazol-5-yl)-4-biphenylyl)-1H-imidazol-2-yl)-1-pyrrolidinyl)-2-oxo-1-phenylethyl)carbamate]
- EC50 [2]: 12 pM
- EC50 [1]: 5 to 5000 pM

Compound: O=C(N[C@@H](C(=O)N1CCC[C@H]1c1nc(-c2ccc(-c3ccc(-c4cnc([C@@H]5CCCN5C(=O)[C@H](NC(=O)OC5CC5)c5ccccc5)[nH]4)cc3)cc2)c[nH]1)c1ccccc1)OC1CC1 [Example CQ-3, Cyclopropyl ((1R)-2-((2S)-2-(4-(4′-(2-((2S)-1-((2R)-2-(((cyclopropyloxy)carbonyl)amino)-2-phenylacetyl)-2-pyrrolidinyl)-1H-imidazol-5-yl)-4-biphenylyl)-1H-imidazol-2-yl)-1-pyrrolidinyl)-2-oxo-1-phenylethyl)carbamate]
- EC50 [1]: 5 to 5000 pM

Compound: O=C(N[C@@H](C(=O)N1CCC[C@H]1c1nc(-c2ccc(-c3ccc(-c4cnc([C@@H]5CCCN5C(=O)[C@H](NC(=O)OC5CCCCC5)c5ccccc5)[nH]4)cc3)cc2)c[nH]1)c1ccccc1)OC1CCCCC1 [Example CQ-4, Cyclohexyl ((1R)-2-((2S)-2-(4-(4′-(2-((2S)-1-((2R)-2-(((cyclohexyloxy)carbonyl)amino)-2-phenylacetyl)-2-pyrrolidinyl)-1H-imidazol-5-yl)-4-biphenylyl)-1H-imidazol-2-yl)-1-pyrrolidinyl)-2-oxo-1-phenylethyl)carbamate]
- EC50 [1]: 5 to 5000 pM

Compound: O=C(N[C@@H](C(=O)N1[C@@H]2C[C@@H]2C[C@H]1c1nc(-c2ccc(-c3ccc(-c4c[nH]c([C@@H]5C[C@H]6C[C@H]6N5C(=O)[C@H](NC(=O)OC5CCC5)c5ccccc5)n4)cc3)cc2)c[nH]1)c1ccccc1)OC1CCC1 [Example CQ-5, Cyclobutyl ((1R)-2-((1R,3S,5R)-3-(4-(4′-(2-((1R,3S,5R)-2-((2R)-2-(((cyclobutyloxy)carbonyl)amino)-2-phenylacetyl)-2-azabicyclo[3.1.0]hex-3-yl)-1H-imidazol-5-yl)-4-biphenylyl)-1H-imidazol-2-yl)-2-azabicyclo[3.1.0]hex-2-yl)-2-oxo-1-phenylethyl)carbamate]
- EC50 [1]: 5 to 5000 pM

Compound: O=C(N[C@@H](C(=O)N1[C@@H]2C[C@@H]2C[C@H]1c1nc(-c2ccc(-c3ccc(-c4c[nH]c([C@@H]5C[C@H]6C[C@H]6N5C(=O)[C@H](NC(=O)OC5CCCC5)c5ccccc5)n4)cc3)cc2)c[nH]1)c1ccccc1)OC1CCCC1 [Example CQ-6, Cyclopentyl ((1R)-2-((1R,3S,5R)-3-(4-(4′-(2-((1R,3S,5R)-2-((2R)-2-(((cyclopentyloxy)carbonyl)amino)-2-phenylacetyl)-2-azabicyclo[3.1.0]hex-3-yl)-1H-imidazol-5-yl)-4-biphenylyl)-1H-imidazol-2-yl)-2-azabicyclo[3.1.0]hex-2-yl)-2-oxo-1-phenylethyl)carbamate]
- EC50 [1]: 5 to 5000 pM

Compound: O=C(N[C@@H](C(=O)N1[C@@H]2C[C@@H]2C[C@H]1c1nc(-c2ccc(-c3ccc(-c4cnc([C@@H]5C[C@H]6C[C@H]6N5C(=O)[C@H](NC(=O)OC5CC5)c5ccccc5)[nH]4)cc3)cc2)c[nH]1)c1ccccc1)OC1CC1 [Example CQ-7, Cyclopropyl ((1R)-2-((1R,3S,5R)-3-(4-(4′-(2-((1R,3S,5R)-2-((2R)-2-(((cyclopropyloxy)carbonyl)amino)-2-phenylacetyl)-2-azabicyclo[3.1.0]hex-3-yl)-1H-imidazol-5-yl)-4-biphenylyl)-1H-imidazol-2-yl)-2-azabicyclo[3.1.0]hex-2-yl)-2-oxo-1-phenylethyl)carbamate]
- EC50 [2]: 6.1 pM
- EC50 [1]: 5 to 5000 pM

Compound: O=C(N[C@@H](C(=O)N1[C@@H]2C[C@@H]2C[C@H]1c1nc(-c2ccc(-c3ccc(-c4cnc([C@@H]5C[C@H]6C[C@H]6N5C(=O)[C@H](NC(=O)OC5CCCCC5)c5ccccc5)[nH]4)cc3)cc2)c[nH]1)c1ccccc1)OC1CCCCC1 [Example CQ-8, Cyclohexyl ((1R)-2-((1R,3S,5R)-3-(4-(4′-(2-((1R,3S,5R)-2-((2R)-2-(((cyclohexyloxy)carbonyl)amino)-2-phenylacetyl)-2-azabicyclo[3.1.0]hex-3-yl)-1H-imidazol-5-yl)-4-biphenylyl)-1H-imidazol-2-yl)-2-azabicyclo[3.1.0]hex-2-yl)-2-oxo-1-phenylethyl)carbamate]
- EC50 [1]: 5 to 5000 pM
